The source made the active and inactive calls. The calls are words filed in the database; no cut-off is given here.
Experiments:
Mus musculus [1] = assay: Anticonvulsant activity against maximal electroshock-induced seizures in ip dosed CF1 albino mouse assessed as time to peak effect; assay type: functional
Mus musculus [2] = assay: Anticonvulsant activity in CF1 albino mouse assessed as protection against maximal electroshock-induced seizures at 30 mg/kg, po after 2 hrs; assay type: functional
Mus musculus [3] = assay: Anticonvulsant activity in ip dosed CF1 albino mouse assessed as inhibition of maximal electroshock-induced seizures after 0.5 hrs; assay type: functional
Mus musculus [4] = assay: Anticonvulsant activity in CF1 albino mouse assessed as protection against maximal electroshock-induced seizures at 30 mg/kg, po after 4 hrs; assay type: functional
Mus musculus [5] = assay: Anticonvulsant activity in ip dosed CF1 albino mouse assessed as inhibition of maximal electroshock-induced seizures after 4 hrs; assay type: functional
Mus musculus [6] = assay: Neurotoxicity in CF1 albino mouse assessed as motor impairment at 30 mg/kg, po after 0.5 hrs by rotarod test; assay type: toxicity, organism-based; parameters: dose 30 mg/kg, route oral; conditions: in vivo
Mus musculus [7] = assay: Neurotoxicity in CF1 albino mouse assessed as motor impairment at 30 mg/kg, po after 2 hrs by rotarod test; assay type: toxicity, organism-based; parameters: dose 30 mg/kg, route oral; conditions: in vivo
Mus musculus [8] = assay: Neurotoxicity in CF1 albino mouse assessed as motor impairment at 30 mg/kg, po after 4 hrs by rotarod test; assay type: toxicity, organism-based; parameters: dose 30 mg/kg, route oral; conditions: in vivo
Mus musculus [9] = assay: Neurotoxicity in CF1 albino mouse assessed as motor impairment at 30 mg/kg, po after 0.25 hrs by rotarod test; assay type: toxicity, organism-based; parameters: dose 30 mg/kg, route oral; conditions: in vivo
Mus musculus [10] = organism: Mus musculus; assay: Protective index, ratio of TD50 for neurotoxicity in CF1 albino mouse to ED50 for inhibition of maximal electroshock-induced seizures in CF1 albino mouse; assay type: functional
Mus musculus [11] = assay: Anticonvulsant activity in CF1 albino mouse assessed as protection against maximal electroshock-induced seizures at 30 mg/kg, po after 0.5 hrs; assay type: functional
[12] = Neurotoxicity in ip dosed CF1 albino mouse assessed as ability to maintain equilibrium for 1 min on […] by rotarod test; assay type: toxicity, organism-based; conditions: in vivo
Mus musculus [13] = assay: Anticonvulsant activity in CF1 albino mouse assessed as protection against maximal electroshock-induced seizures at 30 mg/kg, po after 0.25 hrs; assay type: functional
Mus musculus [14] = assay: Anticonvulsant activity in ip dosed CF1 albino mouse assessed as inhibition of maximal electroshock-induced seizures; assay type: functional
Mus musculus [15] = assay: Neurotoxicity in CF1 albino mouse assessed as motor impairment at 30 mg/kg, po after 1 hr by rotarod test; assay type: toxicity, organism-based; parameters: dose 30 mg/kg, route oral; conditions: in vivo
Mus musculus [16] = assay: Anticonvulsant activity in CF1 albino mouse assessed as protection against maximal electroshock-induced seizures at 30 mg/kg, po after 1 hr; assay type: functional
Mus musculus [17] = assay: Neurotoxicity in ip dosed CF1 albino mouse assessed as ability to maintain equilibrium for 1 min on […] after 4 hrs by rotarod test; assay type: toxicity, organism-based; conditions: in vivo
Mus musculus [18] = assay: Neurotoxicity in ip dosed CF1 albino mouse assessed as ability to maintain equilibrium for 1 min on […] after 0.5 hrs by rotarod test; assay type: toxicity, organism-based; conditions: in vivo
Mus musculus [19] = assay: Anticonvulsant activity in ip dosed CF1 albino mouse assessed as inhibition of subcutaneous pentylenetetrazole-induced seizures; assay type: functional
Mus musculus [20] = assay: Neurotoxicity in CF1 albino mouse assessed as ability to maintain equilibrium for 1 min on […] at 300 mg/kg, ip after 4 hrs by rotarod test; assay type: toxicity, organism-based; parameters: dose 300 mg/kg, route intraperitoneal; conditions: in vivo
Mus musculus [21] = assay: Anticonvulsant activity in CF1 albino mouse assessed as inhibition of maximal electroshock-induced seizures at 300 mg/kg, ip after 4 hrs; assay type: functional, organism-based; parameters: dose 300 mg/kg
Mus musculus [22] = assay: Anticonvulsant activity in CF1 albino mouse assessed as inhibition of maximal electroshock-induced seizures at 300 mg/kg, ip after 0.5 hrs; assay type: functional, organism-based; parameters: dose 300 mg/kg
Mus musculus [23] = assay: Neurotoxicity in CF1 albino mouse assessed as ability to maintain equilibrium for 1 min on […] at 300 mg/kg, ip after 0.5 hrs by rotarod test; assay type: toxicity, organism-based; parameters: dose 300 mg/kg, route intraperitoneal; conditions: in vivo
Mus musculus [24] = assay: Neurotoxicity in CF1 albino mouse assessed as ability to grasp rotarod at 300 mg/kg, ip after 0.5 hrs by rotarod test; assay type: toxicity, organism-based; parameters: dose 300 mg/kg, route intraperitoneal; conditions: in vivo
Mus musculus [25] = assay: Toxicity in CF1 albino mouse assessed as myoclonic jerks at 100 mg/kg, ip after 4 hrs; assay type: organism-based; parameters: dose 100 mg/kg, route intraperitoneal; conditions: in vivo

| SMILES | Activity (Mus musculus [2]) | Activity (Mus musculus [3]) [mg/kg] | Activity (Mus musculus [4]) | Activity (Mus musculus [5]) [mg/kg] | Activity (Mus musculus [6]) | Activity (Mus musculus [7]) | Activity (Mus musculus [8]) | Activity (Mus musculus [9]) | Activity (Mus musculus [11]) | Activity (Mus musculus [13]) | Activity (Mus musculus [15]) | Activity (Mus musculus [16]) | Activity (Mus musculus [17]) [mg/kg] | Activity (Mus musculus [18]) [mg/kg] | Activity (Mus musculus [20]) | Activity (Mus musculus [21]) | Activity (Mus musculus [22]) | Activity (Mus musculus [23]) | also measured |
| --- | --- | --- | --- | --- | --- | --- | --- | --- | --- | --- | --- | --- | --- | --- | --- | --- | --- | --- | --- |
| O=C1CC(c2ccccc2C(F)(F)F)C(=O)N1CCCN1CCN(c2cccc(C(F)(F)F)c2)CC1 (stereo not given) | inactive | 30 | inactive | 100 | Non-toxic | Non-toxic | Non-toxic | Non-toxic | 25% | inactive | Non-toxic | 25% | 300 | 300 |  |  |  |  | Time (Mus musculus [1]): 2 h; Ratio TD50/ED50 (Mus musculus [10]): 2.72; TD50 at 1 min [12]: 360 mg/kg; ED50 (Mus musculus [14]): 132 mg/kg; ED50 (Mus musculus [19]): > 350 mg/kg |
| Cc1ccccc1C1CC(=O)N(CCN2CCN(c3ccccc3)CC2)C1=O (stereo not given) |  |  |  |  |  |  |  |  |  |  |  |  |  | 300 | Non-toxic | inactive | inactive |  |  |
| O=C1CC(c2ccccc2C(F)(F)F)C(=O)N1CCN1CCN(c2ccccc2)CC1 (stereo not given) |  |  |  |  |  |  |  |  |  |  |  |  |  |  | Non-toxic | inactive | inactive | Non-toxic |  |
| O=C1CC(c2ccccc2C(F)(F)F)C(=O)N1CCCN1CCN(c2ccccc2)CC1 (stereo not given) |  | 300 |  |  |  |  |  |  |  |  |  |  |  | 300 | Non-toxic | inactive |  |  | Activity (Mus musculus [24]): Toxic |
| O=C1CC(c2ccccc2C(F)(F)F)C(=O)N1CCN1CCN(c2ccccc2F)CC1 (stereo not given) |  |  |  |  |  |  |  |  |  |  |  |  |  |  | Non-toxic | inactive | inactive | Non-toxic |  |
| O=C1CC(c2ccccc2C(F)(F)F)C(=O)N1CCN1CCN(c2cccc(Cl)c2)CC1 (stereo not given) | inactive |  | inactive | 100 | Non-toxic | Non-toxic | Non-toxic | Non-toxic | inactive | inactive | Non-toxic | inactive |  |  | Non-toxic |  | inactive | Non-toxic |  |
| O=C1CC(c2ccccc2C(F)(F)F)C(=O)N1CN1CCN(c2cccc(C(F)(F)F)c2)CC1 (stereo not given) |  | 100 |  | 100 |  |  |  |  |  |  |  |  |  | 300 | Non-toxic |  |  |  |  |
| O=C1CC(c2ccccc2C(F)(F)F)C(=O)N1CCCN1CCN(c2cccc(Cl)c2)CC1 (stereo not given) |  | 100 |  | 100 |  |  |  |  |  |  |  |  | 300 | 100 |  |  |  |  |  |
| O=C1CC(c2ccccc2C(F)(F)F)C(=O)N1CN1CCN(c2cccc(Cl)c2)CC1 (stereo not given) | 100% |  | 100% | 100 | Non-toxic | Non-toxic | Non-toxic | Non-toxic | 25% | inactive | Non-toxic | 50% | 100 | 100 |  |  | inactive |  |  |
| O=C1CC(c2ccccc2C(F)(F)F)C(=O)N1CCN1CCN(c2cccc(C(F)(F)F)c2)CC1 (stereo not given) |  |  |  |  |  |  |  |  |  |  |  |  |  |  | Non-toxic | inactive | inactive | Non-toxic |  |
| Cc1ccccc1C1CC(=O)N(CCCN2CCN(c3cccc(Cl)c3)CC2)C1=O (stereo not given) | 25% | 300 | inactive | 100 | Non-toxic | Non-toxic | Non-toxic | Non-toxic | inactive | inactive | Non-toxic | inactive |  | 300 | Non-toxic |  |  |  |  |
| COc1ccccc1N1CCN(CN2C(=O)CC(c3ccccc3C)C2=O)CC1.Cl (stereo not given) |  | 300 |  |  |  |  |  |  |  |  |  |  | 300 | 100 |  | inactive |  |  | Activity (Mus musculus [25]): Toxic |

— ChEMBL document CHEMBL1137686, “Synthesis and anticonvulsant activity of new N-[(4-arylpiperazin-1-yl)-alkyl] derivatives of 3-phenyl-pyrrolidine-2,5-dione” (Eur J Med Chem, 2009)
